Laboratory results as given in patent US4835253A, “Specific inhibitors of tissue kallikrein” (The University Hospital, priority 1987, dated 1989).
Several values for one entry are separate records, joined by “and”; a condition that tells them apart may be missing. Equal values may be shown once. Read-outs that look alike come from different tables or passages of the source. Ada = not defined here

Assays:
Human urinary kallikrein [1] = biological target: T1, Human urinary kallikrein (Homo sapiens, UniProt P06870); assay: KM determination: hydrolysis of substrate analogues by HUK (HPLC, scintillation counting); type: biochemical; conditions: analysis of the reaction products
T1 construct: Human urinary kallikrein (hereinafter "HUK") was highly purified using a modification of published methods; from tissue; host or cells: human urine
Procedure: (§1) Human urinary kallikrein (hereinafter "HUK") was highly purified using a modification of published methods that employ ultrafiltration, aprotinin-CH-sepharose affinity chromatography, and Sephadex G-100 gel filtration [ole-MoiYoi et al., Proc. Natl. Acad. Sci. USA 76: 3121-3125 (1979)]. […] The pH of each fraction was determined immediately upon elution, and the fraction was neutralized by addition of 2.0 ml of 2M Tris-HCL buffer (pH 8.0).
KM Determination: Hydrolysis of the substrate analogue inhibitors by HUK was measured by combining the test inhibitor at different concentrations on either side of the KM value with the enzyme at pH 9.0 for thirty minutes at 37 C. The cleavage products were separated from the starting material in the digest by HPLC on a Beckman octadecylsilane (ODS) column (1×25 cm) using a thirty minute gradient of from 0-70% CH3 CN in triethylammonium phosphate buffer (pH 7.0). The starting materials and reaction products were completely resolved under these conditions. Absorbance of the HPLC effluent was monitored at 220 nm. Individual fractions were collected and the amount of peptide degradation products was quantitated by counting in a liquid scintillation counter. Samples containing individual inhibitors were incubated without HUK and solvent blanks were also chromatographed and analyzed in the same way.
For test purposes, in these HUA cleavage studies, individual peptide sequences were synthesized, purified, and characterized as previously described herein. For these cleavage studies, doubly labelled peptides were prepared using [^3 H]-valine and […] respectively. In addition, 6.0N HCL-dioxane was used for removal of tert-butoxycarbonyl protecting groups and 90% hydrogen fluoride/10% anisole (volume/volume) for global deprotection on completion of the synthesis. After extraction and gel filtration on Sephadex G-15, final purification was completed by isocratic elution from a synchrom RP-P column (2.1×25 cm) with CH3 CN--H2 O (8 ml/min). The resultant peptides were deemed to be homogeneous by amino acid analysis; high performance liquid chromatography; thin layer chromatography; and A230 /A260 ratio analysis. […]

Rat urinary kallikrein = biological target: T2, Rat urinary kallikrein (Rattus norvegicus, UniProt P00758); assay: Blood pressure response to injected rat urinary kallikrein during inhibitor infusion; type: in vivo; conditions: infusion 32 nmol/min/animal, anesthetized rats, RUK 203.5 ng
T2 sequence (P00758 25-261): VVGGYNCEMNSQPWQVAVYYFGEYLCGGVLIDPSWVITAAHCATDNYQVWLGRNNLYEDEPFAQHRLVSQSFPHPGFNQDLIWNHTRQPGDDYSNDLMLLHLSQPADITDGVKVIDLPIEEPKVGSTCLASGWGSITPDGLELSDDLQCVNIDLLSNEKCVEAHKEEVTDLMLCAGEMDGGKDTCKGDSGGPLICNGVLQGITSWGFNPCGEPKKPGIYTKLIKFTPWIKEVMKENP
Procedure: A series of in-vivo studies were undertaken to determine the effective of the KKI-7 and KKI-8 inhibitors on the blood pressure response to glandular kallikrein. Initially, three female Dahl hypertension-resistant rats (Brookhaven Laboratories, Brookhaven, N.Y.), and four male Sprague-Dewley rats (Charles River, Wilmington, Mass.) were utilized. Each of these animals was anesthetized with Inactin (100 mg/kg ip) and cannulated in a femoral artery with PE-50 polyethylene tubing (Clay Adams, Parsippany, N.J.) which was connected to a Hewlett-Packard model 1280 blood pressure transducer and model 7702B recorder. The right jugular vein was cannulated with PE-10 tubing. The rats were tracheostomized, but respiration was not artificially assisted. Rat urinary kallikrein (hereinafter "RUK") was repeatedly administered via a venous cannula until a reproducable response was obtained. KKI-8 inhibitor was then infused using a Harvard model 901 infusion pump at a rate of 32 nmol/0.022 ml/min. RUK (203.5 ng in 50 ul) was injected during the infusion period. After the infusion was stopped, the reversibility of the inhibition was examined by further injections of RUK. The infusion of KKI-8 (32 nmol/min/animal) inhibited the very gradual and modest decrease in blood pressure otherwise elicited with RUK.

Human Plasma Kallikrein = Human Plasma Kallikrein (Homo sapiens, UniProt P03952); assay: KI against plasma kallikrein with substrate S-2302; type: biochemical; conditions: read-out: K1, Human Plasma Kallikrein
Procedure: (§2) Initially, the inhibitor constant (KI) for each of these novel inhibitor compositions was determined using purified HUK and the tripeptide nitroanilide, S-2266. The ability to inhibit hydrolysis of the S-2266 substrate was performed in 50 mM tris-HCL buffer (pH 9.0) at 37 C. Subsequently, the ability of these novel inhibitors to inhibit human plasma kallikrein and bovine pancreatic trypsin were similarly examined using the specific substrates H-D-Pro-Phe-Arg-p-nitroanilide (S-2302) and Glu-Gly-Arg-p-nitroanilide (S-2444) respectively. The degradation products of each series was purified by HPLC and quantified by liquid scintillation counting as previously described.

Human urinary kallikrein [2] = biological target: T1, Human urinary kallikrein; assay: KI determination: inhibition of HUK cleavage of chromogenic substrate S-2266; type: biochemical
Procedure: as §1
KI Determinations: KI measurements were performed using a HP8450A diode array spectrophotometer (Hewlett Packard; Palo Alto, Calif.) attached to a Model 216 computer using the multi-component assay program modified to allow simultaneous determination of reaction velocity in four samples. Dixon plots were used to data reduction and for calculation of […]. […] Inhibition of biologically active kinin from LMW-kininogen was done at pH 7.7 and 37 C.
Procedurally, the KI values for the preliminary analogue inhibitors reported previously [Okunishi et al., Hypertension 7 (Suppl. I): I-72-I-75 (1985)] were determined by adding the chromogenic substrate S-2266 comprising D-Val-Leu-Arg-4-nitroaniline to a mixture of the analogue inhibitor and the HUK.
as §2

[3] = biological target: T3, bovine pancreatic trypsin (Bos taurus, UniProt P00760); assay: KI against trypsin with substrate S-2444; type: biochemical; conditions: read-out: K1, Trypsin
T3 sequence (P00760 24-246): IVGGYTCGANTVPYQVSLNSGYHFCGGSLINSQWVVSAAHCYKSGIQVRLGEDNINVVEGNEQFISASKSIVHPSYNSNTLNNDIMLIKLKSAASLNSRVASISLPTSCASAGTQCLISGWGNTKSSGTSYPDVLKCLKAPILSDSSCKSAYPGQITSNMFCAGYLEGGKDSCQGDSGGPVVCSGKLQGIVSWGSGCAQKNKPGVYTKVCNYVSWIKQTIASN
Procedure: as §2

[4] = Effects of the inhibitor infusion itself in the rat blood flow model; type: in vivo
Excerpt: (§3) In order to develop a more reproducible, less tachyphylactic system, a rat blood flow model was developed and assessed in male Sprague-Dawley rats. These animals were anesthetized subcutaneously with urethane (1.4 g/kg). Polyethylene PE-10 tubing was inserted into the right femoral artery and femoral vein for intra-arterial and intravenous injections, respectively, the arterial catheter was inserted such that the tip was located immediately proximal to the bifurcation. The rats were tracheostomized and cannulated with PE-200 tubing. A subcutaneous 23 gauge needle was left in the back of the animal for booster injections of urethane (0.35 g/kg every 2.5 hours). A blood flow probe (1.5 mm circumference) was placed on the left femoroal artery and the mean femoral arterial blood flow was monitored with a square-wave electromagnetic flowmeter (Carolina Medical Electronics, model 501). Rat submaxillary gland kallikrein (hereinafter "RSK") or porcine pancreatic kallikrein (hereinafter "PPK") was given intra-arterially, unless otherwise indicated, until a reproducible response was obtained. […] The blood flow increase over the basal blood flow was integrated and expressed as arbitrary units or as the percent change from blood flow increased observed during the control period. […]

[5] = biological target: porcine pancreatic kallikrein (Sus scrofa, UniProt P00752); assay: Rat femoral artery blood flow response to PPK during and after inhibitor infusion; type: in vivo
Excerpt: (§4) In order to develop a more reproducible, less tachyphylactic system, a rat blood flow model was developed and assessed in male Sprague-Dawley rats. These animals were anesthetized subcutaneously with urethane (1.4 g/kg). Polyethylene PE-10 tubing was inserted into the right femoral artery and femoral vein for intra-arterial and intravenous injections, respectively, the arterial catheter was inserted such that the tip was located immediately proximal to the bifurcation. The rats were tracheostomized and cannulated with PE-200 tubing. A subcutaneous 23 gauge needle was left in the back of the animal for booster injections of urethane (0.35 g/kg every 2.5 hours). A blood flow probe (1.5 mm circumference) was placed on the left femoroal artery and the mean femoral arterial blood flow was monitored with a square-wave electromagnetic flowmeter (Carolina Medical Electronics, model 501). Rat submaxillary gland kallikrein (hereinafter "RSK") or porcine pancreatic kallikrein (hereinafter "PPK") was given intra-arterially, unless otherwise indicated, until a reproducible response was obtained. Each animal was then infused intravenously with KKI-7 inhibitor in DMSO (206 nmole/0.022 ml/min) or with the DMSO vehicle (0.022 ml/min). Bradykinin was also given intra-arterially to determine whether or not the KKI-7 inhibitor effected the blood flow response to bradykinin. The magnitude and duration of the responses to PPK, RSK, and bradykinin were compared before, during, and after the intravenous infusion of KKI-7 or the DMSO vehicle alone. The blood flow increase over the basal blood flow was integrated and expressed as arbitrary units or as the percent change from blood flow increased observed during the control period. The results are provided by FIG. 1 and Table IV below.

[6] = biological target: T4, rat submaxillary gland kallikrein (Rattus norvegicus, UniProt P00758); assay: Rat femoral artery blood flow response to RSK during and after inhibitor infusion; type: in vivo
T4 sequence (P00758 25-261): T2 sequence (P00758 25-261)
Excerpt: as §4

bradykinin = assay: Rat femoral artery blood flow response to bradykinin during inhibitor infusion; type: in vivo
Excerpt: as §3

[7] = Mean arterial blood pressure in normotensive, salt-replete rats (infusion or bolus); type: in vivo, rat
Procedure: Subsequently, a third study utilizing normotensive, salt-replete rats was performed employing an infusion of KKI-7 at a rate of 200 ug of inhibitor per kilogram of rat per minute (200 ug/kg/min). Eight rats each received this infusion for 15 minutes during which the change in mean arterial blood pressure (Torr) was monitored. The results are provided by FIG. 2. In addition, a series of bolus injections were given to conscious, salt-replete, normotensive rats to determine the ED50 dosage necessary to cause a substantive increase in blood pressure. The results are graphically illustrated by FIG. 3 as the log-dose response effect of KKI-7 upon blood pressure.

[8] = HUK, S-2266, text, read-out: KI values
[9] = S-2266, 50 mM tris-HCL pH 9.0, 37 C, read-out: K1, Human Urinary Kallikrein
[10] = iv infusion 206 nmole/0.022 ml/min in DMSO, 2 units PPK
[11] = iv infusion 206 nmole/0.022 ml/min in DMSO

T1 sequence (P06870 25-262): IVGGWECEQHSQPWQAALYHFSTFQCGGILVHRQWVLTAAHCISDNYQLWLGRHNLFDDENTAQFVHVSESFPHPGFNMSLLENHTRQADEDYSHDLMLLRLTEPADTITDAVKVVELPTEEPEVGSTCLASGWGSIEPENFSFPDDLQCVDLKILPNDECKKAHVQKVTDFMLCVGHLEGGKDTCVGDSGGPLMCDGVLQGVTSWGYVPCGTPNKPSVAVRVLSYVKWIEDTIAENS
Sequence of porcine pancreatic kallikrein (P00752 8-246): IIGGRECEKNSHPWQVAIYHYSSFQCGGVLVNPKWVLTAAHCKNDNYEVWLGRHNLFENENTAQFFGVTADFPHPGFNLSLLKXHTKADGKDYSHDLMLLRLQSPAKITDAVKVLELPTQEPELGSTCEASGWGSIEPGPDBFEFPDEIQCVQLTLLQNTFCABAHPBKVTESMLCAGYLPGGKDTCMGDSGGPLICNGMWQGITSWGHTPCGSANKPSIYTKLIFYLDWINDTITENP
Sequence of Human Plasma Kallikrein (P03952 20-638): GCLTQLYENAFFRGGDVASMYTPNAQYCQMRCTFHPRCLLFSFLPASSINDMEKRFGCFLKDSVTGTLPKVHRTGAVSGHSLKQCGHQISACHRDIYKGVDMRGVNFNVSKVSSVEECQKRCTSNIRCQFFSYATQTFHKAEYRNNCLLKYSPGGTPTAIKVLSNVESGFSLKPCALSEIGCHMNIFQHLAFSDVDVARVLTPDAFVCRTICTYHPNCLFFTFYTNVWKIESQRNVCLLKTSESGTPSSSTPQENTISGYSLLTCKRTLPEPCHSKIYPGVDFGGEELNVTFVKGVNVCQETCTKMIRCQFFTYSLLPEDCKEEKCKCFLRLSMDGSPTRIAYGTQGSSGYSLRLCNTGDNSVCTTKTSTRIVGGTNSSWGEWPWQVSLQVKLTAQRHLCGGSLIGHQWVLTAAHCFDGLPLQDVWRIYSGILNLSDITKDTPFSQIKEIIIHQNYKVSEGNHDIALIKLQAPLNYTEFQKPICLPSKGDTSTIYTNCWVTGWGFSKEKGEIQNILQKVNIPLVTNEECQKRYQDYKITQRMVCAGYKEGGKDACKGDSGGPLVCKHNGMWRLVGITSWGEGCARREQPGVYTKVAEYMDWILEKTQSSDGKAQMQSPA

Ada-Phe-Arg-Ser-Val-Gln-NH2 (Ada-FRSVQ-NH2; reading uncertain; also: printed as Ada-Phe-Arg-Ser-Val-Gln-NH2) [KKI-8]
rate of cleavage by HUK relative to hexapeptides containing proline in the P3 position (Human urinary kallikrein [1]): approximately 15% | effect on decrease in blood pressure elicited with RUK (Rat urinary kallikrein): inhibited | Ki (Human Plasma Kallikrein): 358 µM | Ki (Human urinary kallikrein [2]; [8]): 4.2 µM | Ki (Human urinary kallikrein [2]; [9]): 4.2 µM | Ki [3]: 71.8 µM

CC(C)[C@H](NC(=O)[C@H](CO)NC(=O)[C@H](CCCNC(=N)N)NC(=O)[C@H](Cc1ccccc1)NC(=O)CC1CCCCC1)C(=O)N[C@@H](CCC(N)=O)C(N)=O [KKI-7, Cha-Phe-Arg-Ser-Val-Gln-NH2]
side-effects of infusing ([4]; during the experimental period): No specific side-effects | change in blood flow caused by the infusion itself ([4]; infusion in the DMSO vehicle): moderate, transient increase in blood flow | rate of cleavage by HUK relative to hexapeptides containing proline in the P3 position (Human urinary kallikrein [1]): approximately 15% | response to the injection of PPK ([5]; 2 units of PPK, during and after infusion): reduced | CHANGE IN BLOOD FLOW (% OF CONTROL), PPK injected, AFTER INFUSION 30-60 min [5, 10]: 52% | CHANGE IN BLOOD FLOW (% OF CONTROL), PPK injected, DURING INFUSION 10-30 min [5, 10]: 31% | CHANGE IN BLOOD FLOW (% OF CONTROL), PPK injected, DURING INFUSION <10 min [5, 10]: 38% | second phase of the response to RSK, of the control value, individual values ([6]; RSK reinjected 10-30 minutes after the infusion was started): 6% and 26% | CHANGE IN BLOOD FLOW (% OF CONTROL), RSK injected, AFTER INFUSION 30-60 min [6, 11]: 35% | CHANGE IN BLOOD FLOW (% OF CONTROL), RSK injected, AFTER INFUSION <10 min [6, 11]: 11% | CHANGE IN BLOOD FLOW (% OF CONTROL), RSK injected, DURING INFUSION 10-30 min [6, 11]: 16% | CHANGE IN BLOOD FLOW (% OF CONTROL), RSK injected, DURING INFUSION <10 min [6, 11]: 52% | response to RSK injections, of the control response, range ([6]; within the first ten minutes after infusion was begun): 49-56% | effect on the response to bradykinin (bradykinin; bradykinin injected during the inhibitor infusion): no affect | CHANGE IN BLOOD FLOW (% OF CONTROL), BK injected, DURING INFUSION <10 min (bradykinin; iv infusion 206 nmole/0.022 ml/min in DMSO, 1-2 ng bradykinin): 95% | Ki (Human Plasma Kallikrein): 244 µM | Ki (Human urinary kallikrein [2]; [8]): 4 µM | Ki (Human urinary kallikrein [2]; [9]): 4 µM | Ki [3]: 12.3 µM | effect on mean arterial blood pressure ([7]; bolus injection or infusion 200 ug/kg/min for 15 minutes): induces substantial increases | ED50 dose, increase in blood pressure ([7]; bolus injections, conscious, salt-replete, normotensive rats): 0.75 mg/kg
